Legend:
An. Gambiae Tiassalé [1] = assay: Example B5: bottle based cross resistance study (CDC bottle assay); format: in vivo
Experimental: (§1) Based on the “CDC bottle assay” (described at http://www.cdc.gov/malaria/resources/pdf/fsp/ir_manual/ir_cdc_bioassay_en.pdf) 1 ml of ethanol containing a test compound at a defined concentration was added to a 250 ml glass bottle and the bottles were placed on a rolling table to coat the inner surfaces as the solvent evaporated. Once dry, twenty five non-blood fed adult female mosquitoes of the appropriate species and strains (each three day old) were aspirated from the stock culture and gently blown into the exposure bottles. The lid of the bottle was replaced and the bottle placed upright out of direct sun light under standard culture conditions, nominally 28C and 60-80% relative humidity.
(§2) A stopwatch was started, and the assessment of the knock-down were made after 15 minutes and 60 minutes. A mosquito was said to be knocked down if it was unable to stand, following the CDC definition. The bottles were replaced in an upright position when not being assessed.
(§3) After one hour the mosquitoes were carefully removed from the bottle with an aspirator and placed in a recovery cup. The mosquitoes were supplied with a 10% sucrose solution on a cotton wool bung, and stored under culture conditions. Assessments of the mortality were made after 24 hours.
(§4) Each treatment was replicated a minimum of four times, with the mean knockdown or mortality recorded. In each study, a set of bottles was infested with a known insecticide susceptible strain of mosquitoes from the same genera as the resistant strains.

An. stephensi [2] = assay: as above; format: in vivo
Experimental: as §1, §2, §3, §4

An. Gambiae Kisumu sus [3] = assay: as above; format: in vivo
Experimental: as §1, §2, §3, §4

[4] = test system: Anopheles stephensi (Indian malaria mosquito); assay: whole plant or invertebrate; details: Anopheles stephensi
Experimental: […] Once the deposits were dry, five non-blood fed adult female Anopheles stephensi (between two to five days old) were added to each well, and sustained with a 10% sucrose solution in a cotton wool plug. Assessment of the knockdown after 1 hour, and mortality after 48 hours was carried out.
(§5) In case of multiple tests, the mean value is reported.

An. Gambiae Tiassalé [5] = assay: Example B4: cross resistance study, 6-well plate; format: in vivo
Experimental: (§6) In each study, a set of plates were infested with a known insecticide susceptible strain of mosquitoes from the same genera as the resistant strains.
(§7) Assessment of the knockdown after 60 minutes and mortality after 24 hours was carried out. Each treatment was replicated a minimum of four times, with the mean knockdown or mortality recorded.
(§8) A comparison of the knockdown and mortality of the resistant strain of mosquitoes was made to that of the susceptible to identify evidence of cross resistance.

Ae. Aegypti New Orleans = assay: Example B4: cross resistance study, 6-well plate; format: in vivo
Experimental: as §6, §7, §8

An. stephensi [6] = assay: Example B4: cross resistance study, 6-well plate; format: in vivo
Experimental: as §6, §7, §8

An. Arabiensis Moz sus = assay: Example B4: cross resistance study, 6-well plate; format: in vivo
Experimental: as §6, §7, §8

An. Arabiensis Ndjamina = assay: Example B4: cross resistance study, 6-well plate; format: in vivo
Experimental: as §6, §7, §8

An. Gambiae Kisumu sus [7] = assay: Example B4: cross resistance study, 6-well plate; format: in vivo
Experimental: as §6, §7, §8

An. Gambiae Kisumu rdl = assay: Example B4: cross resistance study, 6-well plate; format: in vivo
Experimental: as §6, §7, §8

Ae. aegypti Caymon = assay: Example B4: cross resistance study, 6-well plate; format: in vivo
Experimental: as §6, §7, §8

Anopheles stephensi [8] = assay: Example B7: evaluation of insecticide impregnated polymer surfaces; format: in vivo; details: AI content 2 wt %, after one hour
Text: (§9) Preparation of polymeric sheets: Certain methoxyacrylate were Impregnated into three polymers: LDPE (low density polyethylene), HDPE (high density polyethylene) and PP (polypropylene) in different concentrations by mixing the respective polymer with a compound at high temperatures and the resultant polymeric material were then mould into thin discs or plaques.
(§10) Twenty four hours prior to the relevant assessment intervals, three to five day old non-blood fed adult mosquitoes were taken from the culture and lightly anaesthetised with carbon dioxide. Ten females were selected and placed in a 250 ml plastic cup, retained with a net lid, provided with a 10% sucrose solution soaked in a cotton wool bung and held under culturing environmental conditions.
(§11) After twenty four hours, impregnated polymer sheets (measuring about 150 mm in diameter and about 0.1 mm in thickness) were removed from storage and wrapped around the glazed side of an 11 cm ceramic tile and held in place with an elastic band. A cup of the pre-selected mosquitoes were again lightly anaesthetised with carbon dioxide and transferred from the holding cup to the base of a 9 cm plastic Petri dish. The relevant impregnated polymer sheet was placed over the Petri dish and held in place with an elastic band. Once the mosquitoes had recovered from the anaesthetic, ca. 1 minute, the impregnated polymer sheet was placed on a holding rack, such that treated side was at an angle of […] to the horizontal.
(§12) After one hour an assessment of mosquito knockdown was made. A mosquito was said to be knocked down if it was unable to right itself once it had fallen over. The mosquitoes were lightly anaesthetised again, and removed from the Petri dish exposure chamber and returned to the holding cups. The mosquitoes were supplied with a 10% sucrose solution soaked in a cotton wool bung and held under culturing environmental conditions. An assessment of mortality was made 24 hours after exposure. A mosquito was said to be dead if it is unable to right itself once it had fallen over.

Aedes aegypti [9] = assay: as above; format: in vivo; details: AI content 2 wt %, polymer 4 to 6 weeks old, after one hour
Text: as §9, §10, §11, §12

[10] = test system: Aedes aegypti (Yellow fever mosquito); assay: whole plant or invertebrate; details: Aedes aegypti
Experimental: […] Once the deposits were dry, five non-blood fed adult female Aedes aegypti (between two to five days old) were added to each well, and sustained with a 10% sucrose solution in a cotton wool plug. Assessment of the knockdown after 1 hour, and mortality after 48 hours was carried out.
as §5

Anopheles stephensi [11] = assay: whole plant or invertebrate; details: Anopheles stephensi, 48 h
Experimental: (§13) The individual wells of six (6) well tissue culture plates were treated with 250 μl of an ethanol solution containing a test compound at a defined concentration. Once the deposits were dry, ten non-blood fed adult female Aedes aegypti or Anopheles stephensi (each between two to five day old) were added to each well, and sustained with a 10% sucrose solution in a cotton wool plug.
(§14) Assessment of the mortality was carried out at 48 hours.
(§15) Each treatment was replicated twice, with the mean mortality recorded.

Aedes aegypti [12] = assay: whole plant or invertebrate; details: Aedes aegypti, 48 h
Experimental: as §13, §14, §15

CCC(=N\OC)/C(C)=N/OCc1ccccc1/C(=C\OC)C(=O)OC [Compound 4, Methyl(E)-3-methoxy-2-[2-[[(E)-[(2E)-2-methoxyimino-1-methyl-butylidene]amino]-oxymethyl]phenyl]prop-2-enoate]
Knockdown (%) at 15 mins (An. Gambiae Tiassalé [1]; 20 ppm, bottle, Tiassalé): 17% | Knockdown (%) at 60 mins (An. Gambiae Tiassalé [1]; 20 ppm, bottle, Tiassalé): 96% | mortality at 20 ppm (An. Gambiae Tiassalé [1]; Anopheles gambiae): 77% | Knockdown (%) at 15 mins (An. stephensi [2]; 20 ppm, bottle, An. stephensi): 10% | Knockdown (%) at 60 mins (An. stephensi [2]; 20 ppm, bottle, An. stephensi): 100% | mortality at 20 ppm (An. stephensi [2]; Anopheles stephensi): 80% | Knockdown (%) at 15 mins (An. Gambiae Kisumu sus [3]; 20 ppm, bottle, Kisumu sus): 48% | Knockdown (%) at 60 mins (An. Gambiae Kisumu sus [3]; 20 ppm, bottle, Kisumu sus): 100% | mortality at 20 ppm (An. Gambiae Kisumu sus [3]; Anopheles gambiae): 100% | pest or weed control at 20 ppm ([4]; 1 h, read-out: Knockdown): 80% | mortality at 20 ppm ([4]; 48 h): 100% | Knockdown (An. Gambiae Tiassalé [5]; 2.00 ppm, after 60 minutes, Tiassalé): 70% | mortality at 2 ppm (An. Gambiae Tiassalé [5]; Anopheles gambiae, 24 h): 100% | Knockdown (Ae. Aegypti New Orleans; 2.00 ppm, after 60 minutes, New Orleans): 75% | mortality at 2 ppm (Ae. Aegypti New Orleans; Aedes aegypti, 24 h): 100% | Knockdown (An. stephensi [6]; 2.00 ppm, after 60 minutes, An. stephensi): 95% | mortality at 2 ppm (An. stephensi [6]; Anopheles stephensi, 24 h): 100% | Knockdown (An. Arabiensis Moz sus; 2.00 ppm, after 60 minutes, Moz sus): 0% | mortality at 2 ppm (An. Arabiensis Moz sus; Anopheles arabiensis, 24 h): 95% | Knockdown (An. Arabiensis Ndjamina; 2.00 ppm, after 60 minutes, Ndjamina): 100% | mortality at 2 ppm (An. Arabiensis Ndjamina; Anopheles arabiensis, 24 h): 100% | Knockdown (An. Gambiae Kisumu sus [7]; 2.00 ppm, after 60 minutes, Kisumu sus): 67% | mortality at 2 ppm (An. Gambiae Kisumu sus [7]; Anopheles gambiae, 24 h): 95% | Knockdown (An. Gambiae Kisumu rdl; 2.00 ppm, after 60 minutes, Kisumu rdl): 30% | mortality at 2 ppm (An. Gambiae Kisumu rdl; Anopheles gambiae, 24 h): 100% | Knockdown (Ae. aegypti Caymon; 2.00 ppm, after 60 minutes, Caymon): 45% | mortality at 2 ppm (Ae. aegypti Caymon; Aedes aegypti, 24 h): 90% | knock-down (Anopheles stephensi [8]; HDPE, polymer 4 to 6 weeks old): 93% | knock-down (Anopheles stephensi [8]; HDPE, polymer 6 to 8 weeks old): 77% | knock-down (Anopheles stephensi [8]; LDPE, polymer 4 to 6 weeks old): 87% | knock-down (Anopheles stephensi [8]; LDPE, polymer 6 to 8 weeks old): 70% | knock-down (Anopheles stephensi [8]; PP, polymer 4 to 6 weeks old): 100% | knock-down (Anopheles stephensi [8]; PP, polymer 6 to 8 weeks old): 90% | knock-down (Aedes aegypti [9]; HDPE): 53% | knock-down (Aedes aegypti [9]; LDPE): 63% | knock-down (Aedes aegypti [9]; PP): 63% | pest or weed control at 20 ppm ([10]; 1 h, read-out: Knockdown): 100% | mortality at 20 ppm ([10]; 48 h): 100% | mortality at 5 ppm (Anopheles stephensi [11]): 98% | mortality at 5 ppm (Aedes aegypti [12]): 78%
